According to patent US20230015949A1, “NEISSERIA TREATMENT USING CANNABINOIDS” (priority 2019, published 2023):
Converted amounts (≈) assume the structure as drawn. Where two headings read alike, the source gives them in different places.

Experiments:
Neisseria gonorrhoeae = assay: Broth microdilution MIC testing (Example 1); assay type: cell-based; details: Neisseria gonorrhoeae, broth microdilution, read-out: MIC
Method: (§1) In this study, to evaluate the spectrum of activity, cannabidiol (CBD) was profiled against Neisseria. Testing was conducted following guidelines recommended by the Clinical and Laboratory Standards Institute (CLSI, 1-4), using vancomycin, meropenem, levofloxacin, and gentamicin as comparators for testing aerobic bacteria.
(§2) Test agents were supplied by Micromyx. Stock solutions of all compounds were prepared on the first day of testing at 101× the highest test concentration using solvents recommended by CLSI. CBD was prepared fresh on each of testing.
(§3) The test organisms evaluated in this study consisted of clinical isolates from the Micromyx Repository, reference isolates from the American Type Culture Collection (ATCC; Manassas, Va.), isolates from the antibiotic resistance bank from the Centers for Disease Control and Prevention (CDC; Atlanta, Ga.), and isolates from the Network on Antimicrobial Resistance in Staphylococcus aureus (NARSA; BEI Resources, Manassas, Va.). Upon initial receipt at Micromyx, the organisms were sub-cultured onto an appropriate agar medium. Following incubation, colonies were harvested from these plates and cell suspensions prepared and frozen at −80° C. with a cryoprotectant.
(§4) Prior to testing, Neisseria was streaked onto Chocolate agar (BD; Lot No. 9228071) and incubated at 35° C. in 5% CO2 for 24 hr.
(§5) For Neisseria, a modified medium described by the ATCC as capable of supporting growth was used. This medium contains 15 g Oxoid Special Peptone, 1 g corn starch (Ward's Science; Rochester, N.Y.; Lot 39-3271), 5 g NaCl (VWR; 57897), 4 g K2HPO4 (Sigma; Lot SLBT7061), 1 g KH2PO4 (SLBC1921V), and 1% IsoVitaleX (BD; Lot 8323954) enrichment per 500 mL.
(§6) MIC values were determined using a broth microdilution procedure described by CLSI (1-4). Automated liquid handlers (Multidrop 384, Labsystems, Helsinki, Finland; Biomek 2000 and Biomek FX, Beckman Coulter, Fullerton, Calif.) were used to conduct serial dilutions and liquid transfers.
(§7) To prepare the drug mother plates, which would provide the serial drug dilutions for the replicate daughter plates, the wells of columns 2 through 12 of standard 96-well microdilution plates (Costar 3795) were filled with 150 μl of the designated diluent for each row of drug. The test article and comparator compounds (300 μl at 101× the highest concentration to be tested) were dispensed into the appropriate wells in column 1. The Biomek 2000 was then used to make 2-fold serial dilutions in the mother plates from column 1 through column 11. The wells of column 12 contained no drug and served as the organism growth control wells for the assay.
(§8) The daughter plates were loaded with 190 μL per well of the appropriate test medium for the tested organism using the Multidrop 384. The daughter plates were completed on the Biomek FX instrument which transferred 2 μL of drug solution from each well of a mother plate to the corresponding well of each daughter plate in a single step.
A standardized inoculum of each test organism was prepared per CLSI methods (1-4). The inoculum for each organism was dispensed into sterile reservoirs divided by length (Beckman Coulter), and the Biomek 2000 was used to inoculate the plates. Daughter plates were placed on the Biomek 2000 work surface in reverse orientation so that inoculation took place from low to high drug concentration. Plates were inoculated with 10 μL of the inoculum resulting in a final cell density of approximately 5×10^5 CFU/mL per well.
The plates for testing of aerobic organisms were stacked 3 to 4 high, covered with a sterile lid, and incubated at 35° C. and 5% CO2 for the time periods specified in CLSI (1-4). […] Following incubation, the microplates were removed from the incubator and viewed from the bottom using a plate viewer. […] The MIC was read and recorded as the lowest concentration of drug that inhibited visible growth of the organism.

Neisseria meningitidis = assay: Broth microdilution MIC testing (Example 1); assay type: cell-based; details: Neisseria meningitidis, ATCC13090; N. meningitidis MMX 0707 / ATCC 13090; broth microdilution; read-out: MIC
Method: as §1, §2, §3, §4, §5, §6, §7, §8
A standardized inoculum of each test organism was prepared per CLSI methods (1-4). The inoculum for each organism was dispensed into sterile reservoirs divided by length (Beckman Coulter), and the Biomek 2000 was used to inoculate the plates. […]
The plates for testing of aerobic organisms were stacked 3 to 4 high, covered with a sterile lid, and incubated at 35° C. and 5% CO2 for the time periods specified in CLSI (1-4). […] The MIC was read and recorded as the lowest concentration of drug that inhibited visible growth of the organism.

[1] = Un-inoculated solubility control plate, drug precipitation; assay type: physicochemical; details: Neisseria test medium and CAMHB

## C=C(C)C1CCC(C)=CC1c1c(O)cc(CCCCC)cc1O (centres unmarked) [CBD, 2-[3-methyl-6-(1-methylethenyl)-2-cyclohexen-1-yl]-5-pentyl-1,3-benzenediol]
Neisseria gonorrhoeae; ATCC49226, N. gonorrhoeae MMX 0683 / ATCC 49226, plate read at 40 hr
  MIC: 1 µg/mL (≈ 3.18 µM)
Neisseria gonorrhoeae; N. gonorrhoeae MMX 6746
  MIC: 1 µg/mL (≈ 3.18 µM)
Neisseria gonorrhoeae; N. gonorrhoeae MMX 6757, plate read at 40 hr
  MIC: 2 µg/mL (≈ 6.36 µM)
Neisseria meningitidis
  MIC: 0.25 µg/mL (≈ 0.795 µM)
[1]
  Concentration at which precipitation was seen: ≥ 8000 ng/mL
